Results as given in the NIST ThermoML archive (doi:10.1016/j.jct.2012.03.034).

Assay: xn = mol fraction of the nth substance listed
Settings: 101 kPa, Liquid; for speed of sound: Linear variable-path acoustic interferometer; for mass density: Vibrating tube method; for viscosity: dual vibrating plate viscometer, AandD Co. Ltd Model SV-10

CC(=O)O.CCN(CC)CC [triethylammonium acetate] + CN1CCCC1=O
Settings | mass density [kg/m3] | speed of sound [m/s] | viscosity [mPa·s]
298.15 K, x1 = 0.0138 | 1026.09 | 1564 | 1.61
298.15 K, x1 = 0.0302 | 1026.34 | 1559 | 1.76
298.15 K, x1 = 0.0813 | 1026.88 | 1556 | 2.79
298.15 K, x1 = 0.117 | 1026.93 | 1554 | 3.21
298.15 K, x1 = 0.1733 | 1026.39 | 1555 | 3.79
298.15 K, x1 = 0.2751 | 1023.97 | 1560 | 4.02
298.15 K, x1 = 0.3189 | 1022.57 | 1566 | 3.83
298.15 K, x1 = 0.3865 | 1019.96 | 1578 | 3.58
298.15 K, x1 = 0.5133 | 1015.18 | 1603 | 3.4
298.15 K, x1 = 0.6561 | 1010.89 | 1648 | 4.71
298.15 K, x1 = 0.8181 | 1009.29 | 1714 | 10.14
298.15 K, x1 = 0.926 | 1011.5 | 1776 | 17.25
298.15 K, x1 = 0.9642 | 1012.97 | 1799 | 20.16
298.15 K, x1 = 1 | 1015.86 | 1840 | 24.12
303.15 K, x1 = 0.0138 | 1024.21 | 1555 | 1.52
303.15 K, x1 = 0.0302 | 1024.48 | 1555 | 1.84
303.15 K, x1 = 0.0813 | 1024.64 | 1553 | 2.67
303.15 K, x1 = 0.117 | 1024.37 | 1554 | 3.1
303.15 K, x1 = 0.1733 | 1023.53 | 1555 | 3.42
303.15 K, x1 = 0.2751 | 1020.86 | 1561 | 3.62
303.15 K, x1 = 0.3189 | 1019.42 | 1566 | 3.55
303.15 K, x1 = 0.3865 | 1016.89 | 1579 | 3.18
303.15 K, x1 = 0.5133 | 1012.16 | 1602 | 2.7
303.15 K, x1 = 0.6561 | 1007.69 | 1645 | 3.42
303.15 K, x1 = 0.8181 | 1005.54 | 1713 | 8.21
303.15 K, x1 = 0.926 | 1006.58 | 1769 | 14.2
303.15 K, x1 = 0.9642 | 1007.74 | 1797 | 17
303.15 K, x1 = 1 | 1009.58 | 1824 | 19.6
308.15 K, x1 = 0.0138 | 1020.18 | 1530 | 1.5
308.15 K, x1 = 0.0302 | 1020.47 | 1533 | 1.81
308.15 K, x1 = 0.0813 | 1020.35 | 1536 | 2.61
308.15 K, x1 = 0.117 | 1019.88 | 1539 | 3.03
308.15 K, x1 = 0.1733 | 1018.8 | 1544 | 3.36
308.15 K, x1 = 0.2751 | 1015.91 | 1553 | 3.28
308.15 K, x1 = 0.3189 | 1014.49 | 1559 | 3.14
308.15 K, x1 = 0.3865 | 1011.99 | 1572 | 2.59
308.15 K, x1 = 0.5133 | 1007.46 | 1593 | 2.51
308.15 K, x1 = 0.6561 | 1003.25 | 1632 | 3.1
308.15 K, x1 = 0.8181 | 1000.89 | 1698 | 7.76
308.15 K, x1 = 0.926 | 1001.01 | 1753 | 13.1
308.15 K, x1 = 0.9642 | 1001.75 | 1776 | 14.98
308.15 K, x1 = 1 | 1002.61 | 1798 | 16.13
313.15 K, x1 = 0.0138 | 1015.8 | 1525 | 1.47
313.15 K, x1 = 0.0302 | 1016.2 | 1527 | 1.72
313.15 K, x1 = 0.0813 | 1016.66 | 1529 | 2.3
313.15 K, x1 = 0.117 | 1016.4 | 1530 | 2.78
313.15 K, x1 = 0.1733 | 1015.69 | 1535 | 3.04
313.15 K, x1 = 0.2751 | 1013.39 | 1543 | 2.98
313.15 K, x1 = 0.3189 | 1012.13 | 1548 | 2.83
313.15 K, x1 = 0.3865 | 1010.15 | 1561 | 2.38
313.15 K, x1 = 0.5133 | 1006.1 | 1582 | 2.34
313.15 K, x1 = 0.6561 | 1002.5 | 1616 | 3.01
313.15 K, x1 = 0.8181 | 1000.41 | 1669 | 7.08
313.15 K, x1 = 0.926 | 1000.32 | 1716 | 11.65
313.15 K, x1 = 0.9642 | 1000.61 | 1735 | 13.39
313.15 K, x1 = 1 | 1000.97 | 1752 | 14.81

CC[NH+](CC)CC.O=S(=O)([O-])O [triethylammonium hydrogen sulfate] + CN1CCCC1=O
Settings | mass density [kg/m3] | speed of sound [m/s] | viscosity [mPa·s]
298.15 K, x1 = 0.0115 | 1032.8 | 1575 | 3.39
298.15 K, x1 = 0.0234 | 1038.22 | 1585 | 4.63
298.15 K, x1 = 0.0632 | 1050.09 | 1610 | 4.46
298.15 K, x1 = 0.0927 | 1059.1 | 1627 | 4.81
298.15 K, x1 = 0.1387 | 1070.98 | 1658 | 4.99
298.15 K, x1 = 0.2259 | 1088.61 | 1710 | 8.89
298.15 K, x1 = 0.2631 | 1094.64 | 1734 | 19.46
298.15 K, x1 = 0.3261 | 1103.78 | 1770 | 40.98
298.15 K, x1 = 0.4478 | 1116.87 | 1823 | 96.22
298.15 K, x1 = 0.5947 | 1127.01 | 1871 | 163.18
298.15 K, x1 = 0.7717 | 1135 | 1893 | 229.32
298.15 K, x1 = 0.9017 | 1139.74 | 1885 | 245.82
298.15 K, x1 = 0.9497 | 1141.23 | 1879 | 242.86
298.15 K, x1 = 1 | 1142.89 | 1874 | 235
303.15 K, x1 = 0.0115 | 1029.6 | 1559 | 1.09
303.15 K, x1 = 0.0234 | 1033.96 | 1569 | 1.26
303.15 K, x1 = 0.0632 | 1046.49 | 1594 | 1.97
303.15 K, x1 = 0.0927 | 1054.51 | 1613 | 1.09
303.15 K, x1 = 0.1387 | 1066.39 | 1646 | 2.15
303.15 K, x1 = 0.2259 | 1084.19 | 1699 | 4.28
303.15 K, x1 = 0.2631 | 1090.49 | 1724 | 8.71
303.15 K, x1 = 0.3261 | 1099.54 | 1761 | 24.33
303.15 K, x1 = 0.4478 | 1112.6 | 1818 | 66.28
303.15 K, x1 = 0.5947 | 1123.51 | 1867 | 119.65
303.15 K, x1 = 0.7717 | 1132.09 | 1891 | 168.61
303.15 K, x1 = 0.9017 | 1137.34 | 1886 | 175.33
303.15 K, x1 = 0.9497 | 1139.47 | 1881 | 168.86
303.15 K, x1 = 1 | 1141.83 | 1871 | 153
308.15 K, x1 = 0.0115 | 1024.16 | 1541 | 1.08
308.15 K, x1 = 0.0234 | 1028.44 | 1552 | 0.73
308.15 K, x1 = 0.0632 | 1040.72 | 1574 | –
308.15 K, x1 = 0.0927 | 1048.71 | 1595 | –
308.15 K, x1 = 0.1387 | 1060.66 | 1628 | –
308.15 K, x1 = 0.2259 | 1078.74 | 1682 | –
308.15 K, x1 = 0.2631 | 1085.15 | 1707 | 7.75
308.15 K, x1 = 0.3261 | 1094.3 | 1746 | 23.71
308.15 K, x1 = 0.4478 | 1107.95 | 1806 | 66.53
308.15 K, x1 = 0.5947 | 1119.05 | 1862 | 116.6
308.15 K, x1 = 0.7717 | 1128.8 | 1892 | 161.59
308.15 K, x1 = 0.9017 | 1135.26 | 1887 | 165.14
308.15 K, x1 = 0.9497 | 1137.73 | 1880 | 156.95
308.15 K, x1 = 1 | 1140.72 | 1866 | 138
313.15 K, x1 = 0.0115 | 1019.77 | 1535 | 1.97
313.15 K, x1 = 0.0234 | 1023.04 | 1547 | 0.71
313.15 K, x1 = 0.0632 | 1034.66 | 1573 | 0.73
313.15 K, x1 = 0.0927 | 1043.09 | 1592 | 0.2
313.15 K, x1 = 0.1387 | 1055.07 | 1624 | –
313.15 K, x1 = 0.2259 | 1072.51 | 1681 | 1.97
313.15 K, x1 = 0.2631 | 1079.29 | 1706 | 7.8
313.15 K, x1 = 0.3261 | 1088.65 | 1748 | 22.1
313.15 K, x1 = 0.4478 | 1102.48 | 1809 | 60.67
313.15 K, x1 = 0.5947 | 1114.67 | 1865 | 104.9
313.15 K, x1 = 0.7717 | 1125.81 | 1894 | 142.04
313.15 K, x1 = 0.9017 | 1133.51 | 1884 | 141.04
313.15 K, x1 = 0.9497 | 1136.49 | 1878 | 131.02
313.15 K, x1 = 1 | 1140.02 | 1859 | 108
